Data: patent US6175001A, “Functionalized pyrimidine nucleosides and nucleotides and DNA's incorporating same” (The Scripps Research Institute, priority 1998, dated 2001)

Tests used:
[1] = system: thermostable DNA polymerases (Taq, Vent, Pfu, rTh); test: PCR assays with modified dUTP in place of dTTP, panel of thermostable DNA polymerases; assay type: biochemical; details: for substrate for thermostable DNA polymerases in PCR: typical PCR conditions, analog in place of dTTP, all polymerases tested (Taq, Vent, Pfu, rTh), 519 base pair product; for incorporation of modified base in PCR under varied conditions: variation of Mg+2 (15 to 30 mM) and analog concentrations
Description: (§1) Commercially available thermostable DNA polymerases from […] organisms were studied; Taq from Thermus aquaticus, Vent from Thermococcus litoralis, Pfu from Pyrococcus furiosus, and rTh from Thermus thermophilus. […] Homogeneous incorporation of these derivatives in PCR is not possible due to chain termination, see 11c for discussion of derivatives in PCR: a) M. Shimkus, J. Levy, T. Herman, Proc. Natl. Acad. Sci. U.S.A. 1985, 82, 2593-7; b) B. L. Iverson, P. B. Dervan, J Am. Chem. Soc. 1987, 109, 1241-3. and ref. 10; c) H. Yu, J. Chao, D. Patek, R. Mujumdar, A. S. Waggoner, Nucleic Acids Res. 1994, 22, 3226-32. Successful PCR with this template requires incorporation of 246 modified bases including a single stretch of 8 contiguous thymidines.
(§2) Compound 3 was derivatized with three different N-hydroxysuccinimide esters to prepare Compounds 4a-c (Scheme 2 FIG. 3). […] To test this structure-activity relationship, 4e-4g maintaining the a,b-unsaturated linker arm common to 4a, were also prepared (Scheme 2, FIG. 3). […] Compound 4g, with a free amino group, was used as a template for the synthesis of Compounds 4h and 4i.

rTh polymerase = biological target: T1, rTh polymerase (Thermus thermophilus, UniProt P52028); test: PCR assay with modified dUTP in place of dTTP, rTh polymerase; assay type: biochemical; details: analog in place of dTTP, 519 base pair product
T1 construct: purchased
Description: as §1, §2

[2] = biological target: T2, Superscript II reverse transcriptase (Moloney murine leukemia virus, UniProt P03355, D1183G/D1242N/E1221Q); test: Reverse transcriptase template-directed extension assay; assay type: biochemical; details: 0.4 mM analog; 0.2 mM dATP, dCTP, dGTP; 37 C
T2 construct: Superscript II reverse transcriptase; purchased Gibco/BRL
Experimental: Reverse transcriptases may also be utilized in conjunction with PCR in in vitro selection schemes of DNA enzymes. […] The specificity of this reverse transcriptase is broader and not predictive of the structural requirements of the thermostable polymerases.
Reverse transcriptase assays: Template-directed extension was performed by addition of 10 pmol template DNA 5'-GCTAAAAAAGCTGCTAAAAAGCTGCTAAAAGCTGCTAAAGCTAAGCTAGCTCCCTTTAGTGAGGGTTAATTGC-3' (SEQ ID NO. 1) to 10 pmol primer DNA 5'-GCAATTAACCCTCACTAAAGGG-3' (SEQ ID NO 2) followed by Superscript II reverse transcriptase (Gibco, 200 units.(1^-1). The reaction (25 (I) contained 0.2 mM of dATP, dCTP, dGTP and 0.4 mM analog. Trace quantities of ((-^32 P(-dATP was included to allow the extension efficiency to be monitored. All components except reverse transcriptase were combined, incubated at 90° C. and cooled to 37° C. to anneal the primer. The enzyme (600 units) was added and the reaction mixture was incubated at 37 (C. The DNA was precipitated in ethanol and then dissolved in gel-loading buffer containing urea and heated for 3 min at 90° C. After separation on a 10% denaturing acrylarnide gel, the samples were further analyzed with a Phosphorimager.

[3] = system: thermostable DNA polymerase; details: Latham et al., Nucleic Acids Res. 1994; cited from earlier work

T1 sequence (P52028 whole entry): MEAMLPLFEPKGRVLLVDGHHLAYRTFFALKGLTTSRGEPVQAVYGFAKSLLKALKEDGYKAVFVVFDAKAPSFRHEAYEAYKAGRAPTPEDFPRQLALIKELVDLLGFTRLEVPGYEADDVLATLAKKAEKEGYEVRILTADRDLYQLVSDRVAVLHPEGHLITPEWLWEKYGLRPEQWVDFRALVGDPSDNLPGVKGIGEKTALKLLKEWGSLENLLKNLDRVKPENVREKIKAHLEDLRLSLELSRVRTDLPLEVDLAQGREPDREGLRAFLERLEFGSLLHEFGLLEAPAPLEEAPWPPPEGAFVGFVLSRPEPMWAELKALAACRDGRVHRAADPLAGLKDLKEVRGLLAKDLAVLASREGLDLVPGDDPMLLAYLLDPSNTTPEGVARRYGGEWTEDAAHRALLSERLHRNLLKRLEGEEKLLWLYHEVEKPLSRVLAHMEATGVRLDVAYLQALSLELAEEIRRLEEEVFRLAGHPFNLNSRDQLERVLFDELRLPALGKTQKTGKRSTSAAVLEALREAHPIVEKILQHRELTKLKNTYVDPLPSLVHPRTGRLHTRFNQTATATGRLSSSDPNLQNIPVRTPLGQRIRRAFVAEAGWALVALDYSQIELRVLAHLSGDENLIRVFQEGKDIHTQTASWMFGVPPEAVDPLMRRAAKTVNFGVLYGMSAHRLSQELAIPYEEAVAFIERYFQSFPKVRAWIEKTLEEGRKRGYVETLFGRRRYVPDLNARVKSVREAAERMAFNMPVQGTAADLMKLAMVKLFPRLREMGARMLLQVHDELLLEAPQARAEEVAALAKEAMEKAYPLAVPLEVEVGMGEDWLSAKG

NCc1cccc(/C=C/C(=O)NC/C=C/c2cn([C@H]3C[C@H](O)[C@@H](COP(=O)(O)OP(=O)(O)OP(=O)(O)O)O3)c(=O)[nH]c2=O)c1 [Compound 4g]
substrate for thermostable DNA polymerases in PCR [1]: robust substrate for PCR as compared to 3

O=C(/C=C/c1c[nH]cn1)NCC=Cc1cn([C@H]2C[C@H](O)[C@@H](COP(=O)(O)OP(=O)(O)OP(=O)(O)O)O2)c(=O)[nH]c1=O [Compound 4a]
criteria for in vitro selection: substrate for thermostable polymerases and product serves as template for multiple cycles of PCR amplification [1]: criteria were met | substrate for thermostable DNA polymerases in PCR [1]: excellent substrate for all the polymerases tested

NCC=Cc1cn([C@H]2C[C@H](O)[C@@H](COP(=O)(O)OP(=O)(O)OP(=O)(O)O)O2)c(=O)[nH]c1=O [Compound 3, C-5(3-aminopropenyl)-2'-deoxvuridinetriphosphate]
criteria for in vitro selection: substrate for thermostable polymerases and product serves as template for multiple cycles of PCR amplification [1]: criteria were met | substrate for thermostable DNA polymerases in PCR [1]: acted as a substrate | incorporation / substrate in PCR with rTh polymerase (only polymerase of the panel that accepts it) (rTh polymerase): incorporation into the 519 base pair product only with rTh polymerase

CC(=O)N[C@@H](Cc1c[nH]cn1)C(=O)NCc1cccc(/C=C/C(=O)NC/C=C/c2cn([C@H]3C[C@H](O)[C@@H](COP(=O)(O)OP(=O)(O)OP(=O)(O)O)O3)c(=O)[nH]c2=O)c1 [Compound 4i]
incorporation / substrate in PCR with rTh polymerase (only polymerase of the panel that accepts it) (rTh polymerase): substrate only for rTh polymerase

O=C(CCc1c[nH]cn1)NC/C=C/c1cn([C@H]2C[C@H](O)[C@@H](COP(=O)(O)OP(=O)(O)OP(=O)(O)O)O2)c(=O)[nH]c1=O [Compound 4d]
substrate for thermostable DNA polymerases in PCR [1]: No conditions could be defined with any of the polymerases that allowed for PCR

O=C(O)CCCC(=O)NCc1cccc(/C=C/C(=O)NC/C=C/c2cn([C@H]3C[C@H](O)[C@@H](COP(=O)(O)OP(=O)(O)OP(=O)(O)O)O3)c(=O)[nH]c2=O)c1 [Compound 4h]
substrate for thermostable DNA polymerases in PCR [1]: good substrate for all thermostable polymerases tested | substrate of Superscript II reverse transcriptase in template directed synthesis [2]: all but 4c and 4h were substrates

CCCC#Cc1cn([C@H]2C[C@H](O)[C@@H](COP(=O)(O)OP(=O)(O)OP(=O)(O)O)O2)c(=O)[nH]c1=O [5-(1-pentynyl)-2' deoxyuridine triphosphate]
substrate for a thermostable DNA polymerase [3]: good substrate

O=C(O)c1ccc(C(=O)NC/C=C/c2cn([C@H]3C[C@H](O)[C@@H](COP(=O)(O)OP(=O)(O)OP(=O)(O)O)O3)c(=O)[nH]c2=O)cc1 [Compound 4b]
incorporation of modified base in PCR under varied conditions [1]: failed to define conditions that allowed for incorporation

O=C(O)c1ccccc1-c1ccccc1C(=O)NCC=Cc1cn([C@H]2C[C@H](O)[C@@H](COP(=O)(O)OP(=O)(O)OP(=O)(O)O)O2)c(=O)[nH]c1=O [Compound 4c]
incorporation of modified base in PCR under varied conditions [1]: failed to define conditions that allowed for incorporation | substrate of Superscript II reverse transcriptase in template directed synthesis [2]: all but 4c and 4h were substrates
